# Test results: patent publication US20030144317A1, “Novel benzoylecgonine compositions and methods for producing them” (priority 2001, published 2003)
# What was measured:
# [1] = Stability testing (absence of water) of the composition produced in Example 3; conditions: for relative amount of component at end of reaction (start of the stability trial): composition of Example 3 (no water added; H2O content 0.12 w/w), b61 reads the values as % of the composition
# [2] = Stability testing (initial 5% w/w water) of the composition produced in Example 4; conditions: for relative amount of component at end of reaction (start of the stability trial): composition of Example 4 (initial 5% w/w water; H2O content 4.76 w/w), b61 reads the values as % of the composition
# [3] = composition of Example 3 (absence of water), 25° C., 13 days
# [4] = composition of Example 3 (absence of water), 40° C., 13 days
# [5] = composition of Example 4 (initial 5% w/w water), 25° C., 13 days
# [6] = composition of Example 4 (initial 5% w/w water), 40° C., 13 days
SMILES,"relative amount of component, stability at 25° C. after 13 days [1, 3]","relative amount of component, stability at 40° C. after 13 days [1, 4]",relative amount of component at end of reaction (start of the stability trial) ([1]; day 15 of reaction at 60° C.),"relative amount of component, stability at 25° C. after 13 days [2, 5]","relative amount of component, stability at 40° C. after 13 days [2, 6]",relative amount of component at end of reaction (start of the stability trial) ([2]; day 16 of reaction at 50° C.),"BME % (w/w), stability at 25° C. after 13 days [1, 3]","BME % (w/w), stability at 40° C. after 13 days [1, 4]","BME % (w/w) at end of reaction (start of the stability trial) ([1]; composition of Example 3 (absence of water), day 15 of reaction at 60° C.)","BME % (w/w), stability at 25° C. after 13 days [2, 5]","BME % (w/w), stability at 40° C. after 13 days [2, 6]","BME % (w/w) at end of reaction (start of the stability trial) ([2]; composition of Example 4 (initial 5% w/w water), day 16 of reaction at 50° C.)"
"O=C(O)c1ccccc1 [BA, benzoic acid]",27.35,28.75,26.05,9.17,9.68,8.99,,,,,,
"CN1[C@H]2CC[C@@H]1[C@@H](C(=O)O)[C@@H](OC(=O)c1ccccc1)C2 [BEc, benzoylecgonine]",3.99,4.28,4.097,64.02,66.31,63.8,,,,,,
"COC(=O)[C@H]1[C@@H](OC(=O)c2ccccc2)C[C@@H]2CC[C@H]1N2C [BME, 3-benzoyloxy-2-carbomethyoxy-8-methyl-8-azabicyclo[3.2.1]octane]",1.19,0.90,1.76,0.84,0.46,0.95,0.08 % (w/w),0.06 % (w/w),0.13 % (w/w),0.07 % (w/w),0.04 % (w/w),0.08 % (w/w)
COC(=O)C1=CC[C@@H]2CC[C@H]1N2C [Methyl Ecd],1.33,1.26,1.42,0.86,0.80,1.00,,,,,,
